# Laboratory results taken from publication PMC6675120, “Potent and selective inhibitors for M32 metallocarboxypeptidases identified from high-throughput screening of anti-kinetoplastid chemical boxes” (PLoS Neglected Tropical Diseases, 2019).
# How the values were obtained:
# [1] = molecular target: T1, Purified rabbit lung ACE (Oryctolagus cuniculus, UniProt P12822); assay: ACE assay with Abz-FRK(Dnp)P-OH, dose-response; assay type: biochemical; conditions: dose-response 7,5 pM to 62,5 μM
# T1 construct: Purified rabbit lung ACE (EC 3.4.15.1) was purchased from Sigma-Aldrich; purchased Sigma-Aldrich; host or cells: rabbit lung tissue
# T1 sequence (P12822 34-1310): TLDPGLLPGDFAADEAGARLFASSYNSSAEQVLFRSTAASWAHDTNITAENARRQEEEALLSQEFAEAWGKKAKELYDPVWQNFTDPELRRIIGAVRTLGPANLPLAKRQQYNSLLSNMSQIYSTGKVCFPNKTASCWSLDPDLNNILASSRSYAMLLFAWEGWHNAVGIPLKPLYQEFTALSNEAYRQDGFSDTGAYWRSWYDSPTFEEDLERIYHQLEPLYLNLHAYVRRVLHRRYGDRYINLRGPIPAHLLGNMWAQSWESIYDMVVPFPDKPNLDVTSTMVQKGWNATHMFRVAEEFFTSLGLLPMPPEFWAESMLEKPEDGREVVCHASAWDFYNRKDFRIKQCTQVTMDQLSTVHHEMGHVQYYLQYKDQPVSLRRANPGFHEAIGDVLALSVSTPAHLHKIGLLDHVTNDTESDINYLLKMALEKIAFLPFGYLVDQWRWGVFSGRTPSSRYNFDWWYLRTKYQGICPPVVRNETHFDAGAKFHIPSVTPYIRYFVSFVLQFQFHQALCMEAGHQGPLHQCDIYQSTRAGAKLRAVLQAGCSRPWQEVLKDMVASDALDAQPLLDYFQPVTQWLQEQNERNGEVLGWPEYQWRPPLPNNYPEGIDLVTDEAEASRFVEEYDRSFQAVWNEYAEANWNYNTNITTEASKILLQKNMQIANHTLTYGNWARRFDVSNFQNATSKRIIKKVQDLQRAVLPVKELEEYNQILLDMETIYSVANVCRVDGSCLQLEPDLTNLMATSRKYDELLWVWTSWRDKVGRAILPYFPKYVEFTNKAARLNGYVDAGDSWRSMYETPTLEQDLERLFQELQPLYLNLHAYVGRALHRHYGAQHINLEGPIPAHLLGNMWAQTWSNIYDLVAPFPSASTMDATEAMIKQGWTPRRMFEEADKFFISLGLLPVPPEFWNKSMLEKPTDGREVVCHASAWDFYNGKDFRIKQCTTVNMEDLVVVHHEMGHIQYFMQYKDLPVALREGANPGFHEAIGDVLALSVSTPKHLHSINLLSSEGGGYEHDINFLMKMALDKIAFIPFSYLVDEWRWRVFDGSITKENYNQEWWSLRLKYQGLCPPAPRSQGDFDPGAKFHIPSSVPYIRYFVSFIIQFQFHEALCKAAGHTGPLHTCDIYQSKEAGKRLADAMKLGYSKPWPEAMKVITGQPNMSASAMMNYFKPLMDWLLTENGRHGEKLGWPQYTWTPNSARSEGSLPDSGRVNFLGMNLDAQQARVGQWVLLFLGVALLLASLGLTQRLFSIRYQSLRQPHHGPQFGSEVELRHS
# Procedure: Because M32 MCPs show a strong topological similarity with ACE [22], we chose this enzyme to estimate the IC50 value for each molecule.
# (A) Purified rabbit lung ACE was assayed at 37°C in 0,1 M Tris-HCl pH 7,0 buffer containing 50 mM NaCl, 10 mM ZnCl2 and 0,01% Triton X-100. […] NI, no inhibitor added. […] In all cases, solid lines represent the best fit of four-parameter Hill equation to experimental data (closed circles).
# Purified rabbit lung ACE (EC 3.4.15.1) was purchased from Sigma-Aldrich. Enzyme activity was assayed fluorimetrically with Abz-FRK(Dnp)P-OH (ex/em = 320/420 nm) as substrate in buffer 0,1 M Tris-HCl, 50 mM NaCl, 10 mM ZnCl2, pH 7.0 containing 0,01% Triton X-100 as indicated in [23].
# [2] = test system: HepG2; set-up: method as in https://pubchem.ncbi.nlm.nih.gov/compound/91800813; conditions: ref https://pubchem.ncbi.nlm.nih.gov/compound/91800813, read-out: cytotoxicity IC50; cited from earlier work
smiles,measurement,setting,value
N#Cc1ccc(S(=O)(=O)N2CCN(Cc3cccc(-c4ccncc4)c3)CC2)cc1 [TCMDC-143620],ACE inhibition,[1],inactive
same,IC50,[2],> 100 µM
